Assay results taken from ChEMBL document CHEMBL3244272, “Folate antagonists. 15. 2,3-Diamino-6-(2-naphthylsulfonyl)quinazoline and related 2,4-diamino-6-[(phenyl and naphthyl)sulfinyl and sulfonyl]quinazolines, a potent new class of antimetabolites with phenomenal antimalarial activity” (J Med Chem, 1979).
In brackets after ≈: the same amount, converted by molar mass. Activity calls are given as the source filed them. No cut-off for these calls is given here.

Assays:
Escherichia coli = assay: Antibacterial activity against Escherichia coli Vogel assessed as growth inhibition; type: functional
Plasmodium berghei [1] = assay: Antimalarial activity against trophozoite-induced Plasmodium berghei infected in sc dosed mouse assessed as minimum curative dose; type: functional
Gallus gallus [2] = assay: Toxicity in trophozoite-induced Plasmodium gallinaceum infected in chick assessed as death at 160 mg/kg, sc single dose measured within 48 hrs; type: organism-based; design: dose 160 mg/kg, route subcutaneous; details: chicken, in vivo
Plasmodium gallinaceum [3] = assay: Antimalarial activity against trophozoite-induced Plasmodium gallinaceum infected in chick assessed as cured at 160 mg/kg, sc single dose; type: functional, organism-based; design: dose 160 mg/kg
Plasmodium gallinaceum [4] = assay: Antimalarial activity against trophozoite-induced Plasmodium gallinaceum infected in chick assessed as mean survival time at 160 mg/kg, sc single dose (reference value: 4 days); type: functional; details: route subcutaneous
Shigella sonnei = assay: Antibacterial activity against Shigella sonnei C-10 assessed as growth inhibition; type: functional
Enterococcus faecalis = assay: Antibacterial activity against Streptococcus faecalis MGH-2 assessed as growth inhibition; type: functional
Pseudomonas aeruginosa = assay: Antibacterial activity against Pseudomonas aeruginosa 28 assessed as growth inhibition; type: functional
Staphylococcus aureus [5] = assay: Antibacterial activity against Staphylococcus aureus S18713 assessed as growth inhibition; type: functional
Plasmodium berghei [6] = assay: Antimalarial activity against trophozoite-induced Plasmodium berghei infected in mouse assessed as change in mean survival time at 20 mg/kg, sc single dose after 72 hrs of infection; type: functional; details: route subcutaneous
Staphylococcus aureus [7] = assay: Antibacterial activity against Staphylococcus aureus UC-76 assessed as growth inhibition; type: functional
Plasmodium berghei [8] = assay: Antimalarial activity against trophozoite-induced Plasmodium berghei infected in mouse assessed as change in mean survival time at 40 mg/kg, sc single dose after 72 hrs of infection; type: functional; details: route subcutaneous
Plasmodium berghei [9] = assay: Antimalarial activity against trophozoite-induced Plasmodium berghei infected in mouse assessed as change in mean survival time at 10 mg/kg, sc single dose after 72 hrs of infection; type: functional; details: route subcutaneous
Plasmodium gallinaceum [10] = assay: Antimalarial activity against trophozoite-induced Plasmodium gallinaceum infected in chick assessed as mean survival time at 60 mg/kg, sc single dose (reference value: 3.6 days); type: functional; details: route subcutaneous
Plasmodium berghei [11] = assay: Antimalarial activity against trophozoite-induced Plasmodium berghei infected in mouse assessed as change in mean survival time at 80 mg/kg, sc single dose after 72 hrs of infection; type: functional; details: route subcutaneous
Plasmodium gallinaceum [12] = assay: Antimalarial activity against trophozoite-induced Plasmodium gallinaceum infected in chick assessed as mean survival time at 120 mg/kg, sc single dose (reference value: 3.6 days); type: functional; details: route subcutaneous
Plasmodium gallinaceum [13] = assay: Antimalarial activity against trophozoite-induced Plasmodium gallinaceum infected in chick assessed as mean survival time at 30 mg/kg, sc single dose (reference value: 3.6 days); type: functional; details: route subcutaneous
Plasmodium gallinaceum [14] = assay: Antimalarial activity against sporozoite-induced Plasmodium gallinaceum infected in chick assessed as change in cured at 30 mg/kg, sc single dose; type: functional; details: route subcutaneous
Plasmodium gallinaceum [15] = assay: Antimalarial activity against sporozoite-induced Plasmodium gallinaceum infected in chick assessed as change in cured at 15 mg/kg, sc single dose; type: functional; details: route subcutaneous
Plasmodium gallinaceum [16] = assay: Antimalarial activity against sporozoite-induced Plasmodium gallinaceum infected in chick assessed as change in cured at 60 mg/kg, sc single dose; type: functional; details: route subcutaneous
Gallus gallus [17] = assay: Toxicity in trophozoite-induced Plasmodium gallinaceum infected in chick assessed as death at 30 mg/kg, sc single dose measured within 48 hrs; type: organism-based; design: dose 30 mg/kg, route subcutaneous; details: chicken, in vivo
Plasmodium gallinaceum [18] = assay: Antimalarial activity against sporozoite-induced Plasmodium gallinaceum infected in chick assessed as change in cured at 120 mg/kg, sc single dose; type: functional; details: route subcutaneous
Plasmodium berghei [19] = assay: Antimalarial activity against trophozoite-induced Plasmodium berghei infected in mouse assessed as change in mean survival time at 5 mg/kg, sc single dose after 72 hrs of infection; type: functional; details: route subcutaneous
[20] = test system: Mycobacterium tuberculosis; assay: Antibacterial activity against Mycobacterium tuberculosis H37Rv assessed as growth inhibition; type: functional
Plasmodium berghei [21] = assay: Antimalarial activity against trophozoite-induced Plasmodium berghei infected in mouse assessed as change in mean survival time at 2.5 mg/kg, sc single dose after 72 hrs of infection; type: functional; details: route subcutaneous
Plasmodium berghei [22] = assay: Antimalarial activity against trophozoite-induced Plasmodium berghei infected in mouse assessed as change in mean survival time at 1.25 mg/kg, sc single dose after 72 hrs of infection; type: functional; details: route subcutaneous
Plasmodium gallinaceum [23] = assay: Antimalarial activity against sporozoite-induced Plasmodium gallinaceum infected in chick assessed as change in cured at 240 mg/kg, sc single dose; type: functional; details: route subcutaneous
Plasmodium vivax = assay: Antimalarial activity against Plasmodium vivax New Guinea Chesson in po once daily dosed Owl monkey assessed as curative dose compound treated for 7 days; type: functional
Plasmodium falciparum [24] = assay: Antimalarial activity against chloroquine-resistant, pyrimethamine-sensitive Plasmodium falciparum Vietnam Oak Knoll in Aotus monkey assessed as dose required to >50% cures compound treated for 7 days; type: functional
[25] = Toxicity in chloroquine-sensitive, pyrimethamine-resistant Plasmodium falciparum Malayan Camp CH/Q infected in Aotus monkey compound treated for 7 days; details: in vivo
Plasmodium falciparum [26] = assay: Antimalarial activity against Plasmodium falciparum Vietnam Oak Knoll in po once daily dosed Owl monkey assessed as curative dose compound treated for 7 days; type: functional
Plasmodium gallinaceum [27] = assay: Antimalarial activity against trophozoite-induced Plasmodium gallinaceum infected in chick assessed as cured at 2.5 mg/kg, sc single dose; type: functional, organism-based; design: dose 2.5 mg/kg
Plasmodium gallinaceum [28] = assay: Antimalarial activity against trophozoite-induced Plasmodium gallinaceum infected in chick assessed as mean survival time at 5 mg/kg, sc single dose (reference value: 4 days); type: functional; details: route subcutaneous
Gallus gallus [29] = assay: Toxicity in trophozoite-induced Plasmodium gallinaceum infected in chick assessed as death at 40 mg/kg, sc single dose measured within 48 hrs; type: organism-based; design: dose 40 mg/kg, route subcutaneous; details: chicken, in vivo
Gallus gallus [30] = assay: Toxicity in trophozoite-induced Plasmodium gallinaceum infected in chick assessed as death at 10 mg/kg, sc single dose measured within 48 hrs; type: organism-based; design: dose 10 mg/kg, route subcutaneous; details: chicken, in vivo
Gallus gallus [31] = assay: Toxicity in trophozoite-induced Plasmodium gallinaceum infected in chick assessed as death at 20 mg/kg, sc single dose measured within 48 hrs; type: organism-based; design: dose 20 mg/kg, route subcutaneous; details: chicken, in vivo
Plasmodium gallinaceum [32] = assay: Antimalarial activity against trophozoite-induced Plasmodium gallinaceum infected in chick assessed as cured at 5 mg/kg, sc single dose; type: functional, organism-based; design: dose 5 mg/kg
Plasmodium gallinaceum [33] = assay: Antimalarial activity against trophozoite-induced Plasmodium gallinaceum infected in chick assessed as mean survival time at 20 mg/kg, sc single dose (reference value: 4 days); type: functional; details: route subcutaneous
Gallus gallus [34] = assay: Toxicity in trophozoite-induced Plasmodium gallinaceum infected in chick assessed as death at 80 mg/kg, sc single dose measured within 48 hrs; type: organism-based; design: dose 80 mg/kg, route subcutaneous; details: chicken, in vivo
Gallus gallus [35] = assay: Toxicity in trophozoite-induced Plasmodium gallinaceum infected in chick assessed as death at 5 mg/kg, sc single dose measured within 48 hrs; type: organism-based; design: dose 5 mg/kg, route subcutaneous; details: chicken, in vivo
Gallus gallus [36] = assay: Toxicity in trophozoite-induced Plasmodium gallinaceum infected in chick assessed as death at 2.5 mg/kg, sc single dose measured within 48 hrs; type: organism-based; design: dose 2.5 mg/kg, route subcutaneous; details: chicken, in vivo
Plasmodium gallinaceum [37] = assay: Antimalarial activity against trophozoite-induced Plasmodium gallinaceum infected in chick assessed as mean survival time at 2.5 mg/kg, sc single dose (reference value: 4 days); type: functional; details: route subcutaneous
Plasmodium gallinaceum [38] = assay: Antimalarial activity against trophozoite-induced Plasmodium gallinaceum infected in chick assessed as mean survival time at 10 mg/kg, sc single dose (reference value: 4 days); type: functional; details: route subcutaneous
Plasmodium gallinaceum [39] = assay: Antimalarial activity against trophozoite-induced Plasmodium gallinaceum infected in chick assessed as mean survival time at 40 mg/kg, sc single dose (reference value: 4 days); type: functional; details: route subcutaneous

COc1ccc(S(=O)(=O)c2ccc3nc(N)nc(N)c3c2)cc1
MIC (Escherichia coli): 2.5 µg/mL (≈ 7.57 µM)
MCD (Plasmodium berghei [1]): 20 mg/kg
Activity (Gallus gallus [2]): Toxic
Activity (Plasmodium gallinaceum [3]): Active
MST (Plasmodium gallinaceum [4]): 14.8 days
MIC (Shigella sonnei): 2.5 µg/mL (≈ 7.57 µM)
MIC (Enterococcus faecalis): < 0.25 µg/mL
MIC (Pseudomonas aeruginosa): > 25 µg/mL
MIC (Staphylococcus aureus [5]): 2.5 µg/mL (≈ 7.57 µM)
MST (Plasmodium berghei [6]): 11.4 days
MIC (Staphylococcus aureus [7]): 2.5 µg/mL (≈ 7.57 µM)
MST (Plasmodium berghei [8]): 15.9 days
MST (Plasmodium berghei [9]): 4.9 days

CC1(C)N=C(N)N=C(N)N1c1ccc(Cl)cc1.Cl [CHLORCYCLOGUANIL HYDROCHLORIDE]
MST (Plasmodium gallinaceum [10]): 18.7 days
MST (Plasmodium berghei [11]): 21.6 days
MST (Plasmodium gallinaceum [12]): 22.7 days
MST (Plasmodium gallinaceum [13]): 15.3 days
MST (Plasmodium gallinaceum [14]): 2.3 days
MST (Plasmodium gallinaceum [15]): 0 days
MST (Plasmodium gallinaceum [16]): 0.4 days
Activity (Gallus gallus [17]): Toxic
MST (Plasmodium berghei [6]): 7.9 days
MST (Plasmodium berghei [8]): 13.4 days
MST (Plasmodium berghei [9]): 4.9 days

Nc1nc(N)c2cc(S(=O)(=O)c3cc(Cl)cc(Cl)c3)ccc2n1
MIC (Escherichia coli): > 25 µg/mL
MCD (Plasmodium berghei [1]): 160 mg/kg
MST (Plasmodium gallinaceum [18]): 7 days
MST (Plasmodium berghei [19]): 5.9 days
MST (Plasmodium gallinaceum [14]): 6.3 days
MST (Plasmodium gallinaceum [15]): 2.2 days
MST (Plasmodium gallinaceum [16]): 7 days
MIC (Shigella sonnei): > 25 µg/mL
MIC [20]: > 25 µg/mL
MIC (Enterococcus faecalis): 1 µg/mL (≈ 2.71 µM)
MST (Plasmodium berghei [21]): 0.7 days
MIC (Pseudomonas aeruginosa): > 25 µg/mL
MST (Plasmodium berghei [22]): 0.3 days
MIC (Staphylococcus aureus [5]): 10 µg/mL (≈ 27.1 µM)
MST (Plasmodium berghei [6]): 9.7 days
MST (Plasmodium gallinaceum [23]): 7 days
MIC (Staphylococcus aureus [7]): 2.5 µg/mL (≈ 6.77 µM)
MST (Plasmodium berghei [8]): 11.3 days
MST (Plasmodium berghei [9]): 6.9 days

CCc1nc(N)nc(N)c1-c1ccc(Cl)cc1 [PYRIMETHAMINE]
MST (Plasmodium berghei [19]): 5.3 days
CD90 (Plasmodium vivax): 0.625 mg/kg
Activity (Plasmodium falciparum [24]): 0.6 mg/kg
MST (Plasmodium berghei [21]): 4.7 days
MST (Plasmodium berghei [22]): 3.1 days
MTD at 168 h [25]: > 2.5 mg/kg
CD90 (Plasmodium falciparum [26]): 0.15 mg/kg
MST (Plasmodium berghei [6]): 7.7 days
MST (Plasmodium berghei [9]): 6.1 days

Nc1nc(N)c2cc([S+]([O-])c3ccc(Cl)cc3)ccc2n1 (configuration not stated)
Activity (Plasmodium gallinaceum [27]): Active
MIC (Escherichia coli): 1.5 µg/mL (≈ 4.71 µM)
MCD (Plasmodium berghei [1]): 40 mg/kg
MST (Plasmodium gallinaceum [28]): 15.8 days
Activity (Gallus gallus [2]): Toxic
Activity (Gallus gallus [29]): Toxic
MST (Plasmodium berghei [19]): 4.8 days
Activity (Gallus gallus [30]): Toxic
Activity (Gallus gallus [31]): Toxic
MIC (Shigella sonnei): 20 µg/mL (≈ 62.7 µM)
Activity (Plasmodium gallinaceum [32]): Active
MIC (Enterococcus faecalis): < 0.25 µg/mL
MST (Plasmodium gallinaceum [33]): 23 days
MST (Plasmodium berghei [21]): 6 days
Activity (Gallus gallus [34]): Toxic
Activity (Gallus gallus [35]): Toxic
MIC (Pseudomonas aeruginosa): > 25 µg/mL
MST (Plasmodium berghei [22]): 4.2 days
Activity (Gallus gallus [36]): Toxic
MST (Plasmodium gallinaceum [37]): 4 days
MST (Plasmodium gallinaceum [38]): 23 days
MIC (Staphylococcus aureus [5]): < 0.25 µg/mL
MST (Plasmodium gallinaceum [39]): 27.5 days
MIC (Staphylococcus aureus [7]): < 0.25 µg/mL
MST (Plasmodium berghei [9]): 7.3 days
